Measured values published in US20210261618A1 (TAIAN CITY QIHANG BIOTECHNOLOGY CO., priority 2018, published 2021).
Like-named read-outs stand apart in the source and are kept apart here. Where no end group is shown, it is not given here.

Legend:
[1] = Kunming mice
Method: (§1) 20 Kunming mice, healthy adults, half male and half male, weight 20 g±2%
(§2) 4) Route of administration: tail vein injection;
(§3) 5) Administration method: animal acute toxicity test with a single dose was to study the toxic reaction of the animal within a certain period of time after the animal was given the test substance once or multiple times within 24 h. In this experiment, 3 doses within 24 h were used, namely 0.5 mL/each, 3 times/day, with an interval of 3 h;
(§4) 6) Observing and recording the reaction symptoms of the test animals for 14 consecutive days with twice a day on the day of administration and the next day, and then once a day;
(§5) 7) At the end of the experiment, the animals were killed by cervical dislocation. All the test animals were dissected to observe whether their tissues and organs were changed in volume, color, texture, etc. and recorded;

in vivo = settings: both, Kunming, mouse, iv, 2000 mg/kgBW
Method: as §1, §2, §3, §4, §5

[2] = tested on: transplanted tumor cells of human osteosarcoma MG63; settings: xenograft tumor after 4 weeks of administration; taxol group, each dose group of sp2
Method: 2. AnnexinV-FITC cell apoptosis (annexinV)
2) 50,000-100,000 resuspended cells was taken, and centrifuged at 1000 g for 5 min. The supernatant was discarded, and 195 μl of AnnexinV-FITC binding solution was added to gently resuspend the cells.
6) Immediately flow cytometry detection was performed, wherein AnnexinV-FITC was green fluorescence, and PI was red fluorescence.

[3] = 1 d after 2000 mg/kgBW tail vein
[4] = 3 d after 2000 mg/kgBW tail vein
[5] = 5 d after 2000 mg/kgBW tail vein
[6] = 7 d after 2000 mg/kgBW tail vein
[7] = 9 d after 2000 mg/kgBW tail vein
[8] = 11 d after 2000 mg/kgBW tail vein
[9] = 13 d after 2000 mg/kgBW tail vein

Molecule | animal weight, female (group value) [1, 3] | animal weight, male (group value) [1, 3] | animal weight, female (group value) [1, 4] | animal weight, male (group value) [1, 4] | animal weight, female (group value) [1, 5] | animal weight, male (group value) [1, 5] | animal weight, female (group value) [1, 6] | animal weight, male (group value) [1, 6] | animal weight, female (group value) [1, 7] | animal weight, male (group value) [1, 7] | animal weight, female (group value) [1, 8] | animal weight, male (group value) [1, 8] | animal weight, female (group value) [1, 9] | animal weight, male (group value) [1, 9] | maximum non-toxic dose administered intravenously ([1]; tail vein, observed 14 days) | NOAEL at 336 h (in vivo) | tumor cell apoptosis compared to the model group [2]
RVLNGPEEEAAAPAE [sp2] | 26.458 | 27.565 | 28.245 | 31.131 | 29.135 | 33.177 | 30.603 | 35.699 | 31.884 | 37.611 | 33.355 | 38.017 | 33.25 | 38.456 | 2000 mg/kgBW | 2000 mg/kg | –
CC(=O)O[C@H]1C(=O)[C@@]2(C)[C@H]([C@H](OC(=O)c3ccccc3)[C@]3(O)C[C@H](OC(=O)[C@H](O)[C@@H](NC(=O)c4ccccc4)c4ccccc4)C(C)=C1C3(C)C)[C@]1(OC(C)=O)CO[C@@H]1C[C@@H]2O [taxol] | – | – | – | – | – | – | – | – | – | – | – | – | – | – | – | – | increase the tumor cell apoptosis rate (P<0.05)
